In series [1] the test system is Male Wistar rats. As to the kind of experiment: Home-cage free access to 4.5% ethanol beer after oxytocin prophylaxis (Example 3, FIGS. 5-7). The format is in vivo, rat. On the procedure:
(§1) Male Wistar rats (n=48) were obtained from the Animal Resource Centre (ARC), Perth, Western Australia, Australia. The animals were of early adolescent age (i.e., 21 days-old) on arrival and were young adults (i.e., 33 days-old) when oxytocin therapy commenced. The animals were housed and maintained as described in the preceding examples, except that animals were moved to individual housing during chronic exposure to alcohol.
(§2) One-half of the rats (n=24) were administered 10 injections of 1 mg/kg oxytocin (1×I/P injection per day for a total of 10 days). The other half of the rats (n=24) received equivalent injections of placebo/vehicle lacking oxytocin.
A subset of the treated rats (n=8 per condition) were exposed to alcohol in the lickometer apparatus over a 10 day period. On the first day of testing, animals were exposed to a 70 min session in the lickometer during which a low-alcohol near-beer was provided at both lick tubes (Birell's Premium, containing 0.5% alcohol). On subsequent days, animals were exposed to further 70 min test sessions during which near-beer supplemented with increasing amounts of absolute ethanol were provided at both lick tubes i.e., to produce a beer comprising 1.5%, 2.5%, 3.5% and finally 4.5% ethanol. The concentration of ethanol was then maintained at 4.5% for all subsequent testing.
After 9 days of lickometer testing, the rats were given free access to 4.5% ethanol containing beer for a 24-day period in their home cages. Standard rat chow and tap water were also available in the home cages. Alcohol intakes and body weights were measured daily.

Series [2] has as its system alcohol-dependent adults and non-dependent problem drinkers. Kind of series: Human Study 1: intranasal oxytocin, stress and alcohol-related cues. It counts as in vivo. The note with it: during presentation of stress and alcohol cues, versus placebo. The method, then:
The underlying mechanisms of intranasal oxytocin during exposure to stress and alcohol related cues in adult alcohol-dependent and adult non-dependent problem drinkers are determined.
In particular, at least twenty male and female adults reporting alcohol dependence according to the Diagnostic and Statistical Manual of Mental Disorders, Fourth Edition (DSM-IV) as determined by the Structured Clinical Interview for the DSM-IV (SCID-IV) are recruited from the community to participate in a laboratory based investigation on the role of oxytocin in stress-related alcohol craving. […]
Subjects returning to the Brain and Mind Research Institute on the afternoon of the final day of testing are evaluated. Bloods and saliva are taken, and plasma oxytocin and cortisol levels and saliva cortisol are determined and compared to baseline levels before commencement of therapy. […] Changes in mood, drinking behavior and neuropsychology are evaluated for both groups by comparison with baseline evaluations. Changes in smoking behavior are evaluated by FTND testing and comparison with baseline evaluations. HR and BP records over the period and at cessation are also determined and compared to baseline levels before commencement of therapy. […]

Series [3] concerns Male Wistar rats. Kind of series: Emergence test of anxiety after oxytocin pre-treatment (Example 3). The format is in vivo, rat. On the procedure: as §1, §2
At 7 days following final injection of oxytocin, all rats were tested in an emergence test of anxiety. This 5 min test measures the willingness of rats to leave a small dark hide box and emerge into a brightly lit open field. Rats normally avoid brightly lit and open spaces. Three days later, the animals were tested in social interaction tests which measure the willingness of rats to engage in social behavior during a 10 min session in a darkened arena where they meet an unknown rat that has received the same drug treatment.

The subject of another series is P rats. As to the kind of experiment: Lickometer alcohol preference in alcohol-naïve P rats pre-treated with 10 daily oxytocin injections (Example 2). The format is in vivo, rat. On the procedure: P rats (8 female and 6 male P rats) of adult age (i.e., 150 days) were used in this study. Animals were maintained as described in example 1, however they received no alcohol prior to testing.
One-half of the rats (n=4 female and n=3 male) were given 10 injections of 1 mg/kg oxytocin (a single I/P injection per day for a total of 10 days). The other half of the rats received equivalent injections of placebo/vehicle lacking oxytocin. Two weeks later, the alcohol preferences of both sets of alcohol-naïve animals were tested. The same alcohol and alcohol-free solutions were employed as in example 1, and testing conditions were in the same lickometer apparatus. Testing in the lickometer (1×70 min session per day) continued for a total of 10 days during which time intake of sucrose and Vodka Cruiser were measured.

[4] abbreviates: FIG. 6 panel A, start of exposure.
The mark [5] stands for this setting: 10 x 1 mg/kg I/P, tested 7 days after final injection, versus vehicle.

The text below walks through data of US9119805B2, “Therapy and prevention of problem drinking” (THE UNIVERSITY OF SYDNEY, priority 2009, dated 2015).

Entries after “also recorded” stand apart in the source; their conditions may differ.

On to `CC[C@H](C)[C@@H]1NC(=O)[C@H](Cc2ccc(O)cc2)NC(=O)[C@@H](N)CSSC[C@@H](C(=O)N2CCC[C@H]2C(=O)N[C@@H](CC(C)C)C(=O)NCC(N)=O)NC(=O)[C@H](CC(N)=O)NC(=O)[C@H](CCC(N)=O)NC1=O` [oxytocin], for which, in the series with Male Wistar rats [1] (FIG. 5, final oxytocin injection about 30 days before exposure to alcohol, versus placebo), the “average daily intake of full strength beer” value is listed as “significantly reduced alcohol consumption; also recorded: consistently less alcohol intake”. In the series on Male Wistar rats [1] (FIG. 6, same period), the consumption of water result is “did not significantly modify consumption of water; also recorded: unchanged”. For the same molecule, the “escalation of alcohol consumption / alcohol intake” value in the series on Male Wistar rats [1] (FIG. 6, 10 daily IP injections ending about 21 days before 24 days beer exposure, versus saline vehicle) was “significantly reduced an escalation of alcohol consumption; also recorded: consistently less alcohol intake”. Also, the “ethanol consumption after marginal increase” value with Male Wistar rats [1] (FIG. 6 panel A, over 24 days) is 10-10.8 g/kg of pure ethanol per day. Further, in the series on Male Wistar rats [1] (setting [4]), the initial beer consumption result is recorded as “about 110 ml of beer per day” and the initial ethanol consumption entry was “about 9 g/kg of pure ethanol per day”. Also, the “reduction of initial alcohol consumption” value in the series with Male Wistar rats [1] (FIG. 6 panel A, versus animals without oxytocin) was “about 10%”. The “total consumption of full strength beer” value in the series on Male Wistar rats [1] (FIG. 7 panel A, final week of the experiment, versus saline vehicle) is given as “significantly reduced later consumption of alcohol”. For the same molecule, in the series on Male Wistar rats [1] (FIG. 7 panel B, final week), the total water consumption entry is “no significant difference in total water consumption”. The “alcohol consumed with free access to full strength beer in home cages” value in the series on Male Wistar rats [1] (FIGS. 5-7, versus placebo) is reported as “consumed consistently less alcohol”. In addition, in the series with Male Wistar rats [1] (oxytocin pre-treated rats versus controls, FIG. 5 experiment), the “body weight and food intake” value is “same body weight and food intake as controls”. Besides, in the series on Male Wistar rats [1] (oxytocin pre-treated rats, FIG. 5 experiment), the general health result is given as “appeared healthy”. In addition, in series [2], the anxiety and stress result is on record as “lower”; the “subjective craving for alcohol” value is listed as “lower”. In addition, in the series with Male Wistar rats [3] (setting [5]), the “emergence from hide into brightly-lit open field” value was “greater likelihood of emergence into the open field; also recorded: emerged more rapidly” and the time hiding result was “reduced time hiding; also recorded: significantly less time hiding”. In addition, the anxiety result in the series with Male Wistar rats [3] (relative to control rats) was “reduced anxiety”. In addition, the “alcohol intake and preference for alcohol” value in the series with P rats (alcohol-naïve P rats, both sexes, repeated doses) was “reduced alcohol intake and preference for alcohol; also recorded: reduced significantly”. Besides, the “preference for Vodka Cruiser versus 3% sucrose solution” value in the series with P rats (male alcohol-naïve P rats, 10 x 1 mg/kg/day, final 4 days of testing) was “significantly reduced preference for Cruiser over sucrose”. Also, in the series on P rats (male oxytocin-treated rats relative to both female groups), the intake of sucrose entry is reported as “higher”. Besides, the “intake of Cruiser (alcohol)” value in the series on P rats (male oxytocin-treated rats versus the other groups) is on record as “less intake of alcohol; also recorded: lower”. Further, in the series with P rats (males compared to females), the “reduced acquisition of alcohol preference, comparison between the sexes” value is reported as “greater in males compared to females”.
